From ChEMBL document CHEMBL1201862, “PubChem BioAssay data set” (2004) come the findings set out here.

Molecules are shown by their SMILES. Where a name gives a salt, the structure may show the parent alone.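 Five compound concentrations were applied to cells in 96-well plates for 48 hours; endpoints were derived by simple linear interpolation of the resulting dose-response curve. GI50 marks 50% less growth.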 The source made the active and inactive calls. Rule as the data show it: active = GI50 up to about 1.1 µM and inactive = higher.

Test systems include 786-0; EKVX; HCC 2998; HCT-15; MOLT-4; NCI-H226; NCI-H522; OVCAR-5; RPMI-8226; SF-268; SK-MEL-5; SN12C; SNB-75; SW-620; UACC-257; UACC-62; SK-OV-3; SR.
Holding throughout (test): NCI tumour cell line growth inhibition, 48 h

Take `O=C(/N=C(/Nc1ccccc1)SCCS/C(=N\C(=O)c1ccccc1)Nc1ccccc1)c1ccccc1`: the GI50 in the test on 786-0 was 61.4 µM (inactive); in the test on EKVX, > 100 µM (inactive); in the test with HCC 2998 it was 34.9 µM (inactive); with HCT-15 it was 54.8 µM; in the test with MOLT-4 it was 38.7 µM (inactive); with NCI-H226 it was 66.5 µM (inactive). The GI50 was 22.2 µM (inactive) in the test with NCI-H522; > 100 µM (inactive) in the test with OVCAR-5; 48.2 µM (inactive) in the test on RPMI-8226; 41.5 µM (inactive) in the test with SF-268; 48.3 µM (inactive) in the test on SK-MEL-5; 63.1 µM (inactive) in the test on SN12C. Further, the GI50 in the test with SNB-75 was 29.5 µM (inactive); in the test on SW-620 it was > 100 µM (inactive); in the test with UACC-257, 42.5 µM (inactive); in the test on UACC-62, 52.2 µM (inactive).
As to `COC(=O)C1=CCS(=O)(=O)C1`, the GI50 with 786-0 was > 100 µM (inactive); in the test on EKVX, > 100 µM (inactive); with HCC 2998, > 100 µM (inactive); in the test on HCT-15 it was over 100 µM; in the test on MOLT-4 it was > 100 µM (inactive); with NCI-H226, > 100 µM (inactive). The GI50 in the test on OVCAR-5 was > 100 µM (inactive); in the test with RPMI-8226, > 100 µM (inactive); in the test on SF-268, > 100 µM (inactive); with SK-MEL-5, 5.16 µM (inactive); in the test on SK-OV-3, > 100 µM (inactive); in the test with SN12C, > 100 µM (inactive). Further, the GI50 in the test with SNB-75, in the test with SW-620, with UACC-257 and in the test with UACC-62 was > 100 µM (inactive) throughout.
For `CCc1cccc(C)c1NC(=O)CCc1nnc(SC)o1`, the GI50 in the test with 786-0 was > 100 µM (inactive); with EKVX, > 100 µM (inactive); in the test on HCC 2998 it was > 100 µM (inactive); in the test with HCT-15, over 100 µM; with MOLT-4, > 100 µM (inactive); in the test on NCI-H522, > 100 µM (inactive). Also, the GI50 in the test with OVCAR-5, in the test on RPMI-8226, in the test with SF-268, in the test with SK-MEL-5, in the test with SK-OV-3 and with SN12C was > 100 µM (inactive) in each case. The GI50 in the test on SNB-75 was > 79.4 µM (inactive); in the test with SR it was 0.622 µM (active); in the test with SW-620, > 100 µM (inactive); with UACC-257, > 100 µM (inactive); in the test with UACC-62, > 100 µM (inactive).
For `O=C(CC1(O)C(=O)Nc2c(Cl)ccc(Cl)c21)c1ccc(Cl)cc1Cl` (centres undefined), the GI50 was 14.2 µM (inactive) in the test on 786-0; 21.6 µM (inactive) with EKVX; 15.7 µM (inactive) in the test with HCC 2998; 30.6 µM with HCT-15; 15.5 µM (inactive) in the test on NCI-H226; 16.6 µM (inactive) with OVCAR-5. Besides, the GI50 is 19.5 µM (inactive) in the test with RPMI-8226; 27.6 µM (inactive) in the test with SF-268; 21.9 µM (inactive) in the test on SK-OV-3; 16.6 µM (inactive) in the test with SN12C; 16.7 µM (inactive) in the test with SNB-75; 14.1 µM (inactive) with SW-620. Further, the GI50 with UACC-257 was 11.6 µM (inactive); with UACC-62 it was 16.1 µM (inactive).
As for `CCCCCCCCc1cc2c(O)c(c1)Cc1cc(CCCCCCCC)cc(c1O)Cc1cc(CCCCCCCC)cc(c1O)Cc1cc(CCCCCCCC)cc(c1O)Cc1cc(CCCCCCCC)cc(c1O)Cc1cc(CCCCCCCC)cc(c1O)C2`, the GI50 is > 100 µM (inactive) in the test with 786-0; > 100 µM (inactive) in the test on HCC 2998; over 100 µM in the test on HCT-15; > 100 µM (inactive) in the test on MOLT-4; > 100 µM (inactive) in the test with OVCAR-5; > 100 µM (inactive) in the test with SF-268. For the same compound, the GI50 in the test on SK-OV-3, with SN12C, in the test on SNB-75, with SR, with SW-620 and in the test with UACC-257 was > 100 µM (inactive) throughout. Besides, the GI50 in the test on UACC-62 was > 100 µM (inactive).
For `CC(=O)O[C@H]1CC2C=CC3C(CCC31)O2` (some centres undefined), the GI50 with 786-0 was > 100 µM (inactive); with EKVX, > 100 µM (inactive); in the test on HCC 2998, > 100 µM (inactive); with HCT-15, over 100 µM; in the test on MOLT-4 it was > 100 µM (inactive); in the test with SF-268, > 100 µM (inactive). For the same compound, the GI50 with SK-OV-3, with SN12C, in the test on SNB-75, in the test with SW-620 and in the test on UACC-62 was > 100 µM (inactive) throughout.
Turning to `CC(C)C1C(=O)NC(CO)Cc2c[nH]c3c(C(c4c[nH]c5ccccc45)C(O)CO)ccc(c23)N1C` (centres undefined), the GI50 was 62.8 µM (inactive) with 786-0; > 100 µM (inactive) in the test on EKVX; 3.38 µM (inactive) in the test with HCC 2998; 49 µM (inactive) with MOLT-4; > 100 µM (inactive) in the test on NCI-H522; > 100 µM (inactive) in the test on RPMI-8226. For the same compound, the GI50 in the test with SF-268 is > 100 µM (inactive); with SK-MEL-5 it was 16.4 µM (inactive); in the test on SK-OV-3, > 100 µM (inactive); in the test with SN12C, > 100 µM (inactive); in the test on SNB-75, 84.9 µM (inactive); in the test with SR, 21.7 µM (inactive). Further, the results for the GI50 in the test on SW-620, in the test with UACC-257 and in the test with UACC-62 were 74.8 µM (inactive), > 100 µM (inactive) and 79.8 µM (inactive), respectively.
`O=C1OC(CCCl)(c2ccccc2)CC1CN1CCOCC1` (centres undefined): the GI50 with 786-0 is 12.1 µM (inactive); in the test on EKVX, 19.9 µM (inactive); with HCC 2998, 26.3 µM (inactive); in the test with HCT-15, 20.9 µM; with MOLT-4, 18 µM (inactive); in the test on NCI-H226 it was 13.8 µM (inactive). Also, the GI50 in the test on NCI-H522 was 18.7 µM (inactive); with OVCAR-5, > 100 µM (inactive); in the test with RPMI-8226 it was 3.84 µM (inactive); with SF-268 it was 41.4 µM (inactive); with SK-MEL-5 it was 19.7 µM (inactive); in the test with SK-OV-3 it was > 100 µM (inactive). For the same compound, the GI50 in the test on SN12C was 29.2 µM (inactive); in the test on SNB-75, 15.4 µM (inactive); with SW-620, 17 µM (inactive); with UACC-257 it was 22.5 µM (inactive); in the test on UACC-62, 21 µM (inactive).
For the compound `CCOc1cn(C2OC(CO)C(O)C2O)c(=O)[nH]c1=O` (centres undefined), the GI50 is > 100 µM (inactive) in the test on 786-0; > 100 µM (inactive) in the test with EKVX; > 100 µM (inactive) in the test with HCC 2998; over 100 µM in the test with HCT-15; > 100 µM (inactive) with MOLT-4; > 100 µM (inactive) in the test with NCI-H226. Moreover, the GI50 in the test on NCI-H522, in the test on OVCAR-5, in the test with RPMI-8226, in the test on SF-268, with SK-MEL-5 and in the test with SK-OV-3 was > 100 µM (inactive) throughout. Also, the GI50 is > 100 µM (inactive) in the test on SN12C; > 100 µM (inactive) in the test with SNB-75; 31.3 µM (inactive) in the test on SW-620; > 100 µM (inactive) in the test with UACC-257; > 100 µM (inactive) with UACC-62.
Consider `Oc1cc(-c2ccccc2)nc2cc(Cl)ccc12`, for which the GI50 was 0.507 µM (active) in the test on 786-0; > 100 µM (inactive) in the test on EKVX; 0.897 µM (active) with HCC 2998; 0.387 µM in the test with HCT-15; 0.675 µM (active) in the test with MOLT-4; 7.67 µM (inactive) in the test on NCI-H226. The GI50 with NCI-H522 is 0.112 µM (active); in the test with OVCAR-5, > 100 µM (inactive); in the test with RPMI-8226, 0.422 µM (active); in the test on SF-268 it was 1.21 µM (inactive); in the test on SK-MEL-5, 0.191 µM (active); in the test with SK-OV-3 it was 0.493 µM (active). The GI50 in the test on SN12C is 3.3 µM (inactive); in the test with SNB-75 it was 0.352 µM (active); with SW-620, 0.34 µM (active); in the test on UACC-257 it was 14.1 µM (inactive); with UACC-62 it was 0.294 µM (active).
Consider `CC(=O)NNc1ncc(C(=O)/C=C/c2ccccc2C)s1`, for which the GI50 with 786-0, in the test on EKVX, in the test on HCC 2998, in the test with MOLT-4, in the test on NCI-H522 and in the test on OVCAR-5 was > 100 µM (inactive) throughout. Moreover, the GI50 in the test on RPMI-8226, in the test with SF-268, in the test with SK-MEL-5, with SK-OV-3, with SNB-75 and in the test with SW-620 was > 100 µM (inactive) throughout. The GI50 in the test with UACC-257 and with UACC-62 was > 100 µM (inactive) each time.
In the case of `Cc1nccc2c1[nH]c1cc(O)ccc12` [HARMOL HYDROCHLORIDE], the GI50 is 55.2 µM (inactive) in the test with 786-0; 68.2 µM (inactive) in the test on EKVX; 91 µM (inactive) in the test with HCC 2998; 61.4 µM in the test on HCT-15; 23.7 µM (inactive) in the test on MOLT-4; 96.6 µM (inactive) in the test with NCI-H226. Besides, the GI50 is 68.2 µM (inactive) with OVCAR-5; 44.5 µM (inactive) with RPMI-8226; > 100 µM (inactive) in the test with SF-268; 69.2 µM (inactive) in the test on SK-MEL-5; > 100 µM (inactive) with SK-OV-3; 76.4 µM (inactive) with SN12C. In addition, the GI50 with SNB-75 was 33 µM (inactive); in the test with SW-620, 39.1 µM (inactive); in the test with UACC-257, 82.4 µM (inactive); in the test with UACC-62, 96.6 µM (inactive).
For `O=c1/c(=C/c2ccc(Cl)cc2Cl)sc2nc3ccccc3n12`, the GI50 in the test with 786-0 was > 100 µM (inactive); in the test on EKVX, > 100 µM (inactive); with HCC 2998, > 100 µM (inactive); in the test on HCT-15 it was over 100 µM; with MOLT-4 it was > 100 µM (inactive); in the test with NCI-H226, > 100 µM (inactive). In addition, the GI50 in the test with NCI-H522, in the test on OVCAR-5, in the test on SF-268, with SK-MEL-5, in the test with SK-OV-3 and with SN12C was > 100 µM (inactive) throughout. Also, the GI50 in the test with SNB-75, with SW-620, in the test with UACC-257 and in the test with UACC-62 was > 100 µM (inactive) each time.
